Measured values from ChEMBL document CHEMBL5303711, “ECBD screening data for assay EOS300108” (2023).
Activity calls are given as the source filed them. No rule for the calls is given here.

experiment: Cytotoxicity activity against human HepG2 cells assessed by CellTiter-Glo luminescent cell viability assay.; type: toxicity, cell-based; design: assay stage confirmatory assay, source tissue liver; conditions: HepG2 cells, read-out: IC50 relative

Structure (SMILES)	CC50
CCC(=O)Nc1ccc(C(=O)Cn2ncc(Cl)c(Cl)c2=O)cc1	3.3 µM (active)
COc1ccccc1N1CCN(S(=O)(=O)c2ccc3c4c(cccc24)C(=O)N3)CC1	10.8 µM (inactive)
CN(C)S(=O)(=O)c1cccc(NC(=O)CSc2cccc3cccnc23)c1	3.5 µM (active)
Cn1c(=O)oc2cc(S(=O)(=O)Nc3cccc4cccnc34)ccc21	16.7 µM (active)
CC(C)(C)c1n[nH]c2c(-c3nc4ccccc4s3)c(N)nn2c1=O	35.4 µM (inactive)
COCCN1COc2c(cc(Cl)c3cccnc23)C1	7.5 µM (active)
CCOCCCNC(=O)c1nnn(-c2ccc3ncccc3c2)c1C	3.1 µM (active)
Cc1cn(CC(=O)c2ccc(NC(=O)CC(C)C)cc2)cc(Br)c1=O	22.2 µM (inactive)
c1ccc([C@H](CC2CCC2)NC2CCC3(CC2)OCCO3)cc1	4 µM (active)
Cc1ccc(Cc2cnc(NC(=O)NC[C@H](C)CN3CCN(C)CC3)s2)cc1	7.6 µM (active)
O=C(Nc1ccccn1)c1cccc(NS(=O)(=O)c2c[nH]c3ncccc23)c1	8.6 µM (active)
Cc1cc(C)c(C(N)=O)c(SCC(=O)N(CCC#N)c2ccc3c(c2)OCCO3)n1	4.3 µM (active)
COc1ccc(OC)c(C2CC(c3c(O)[nH]c(=O)n(C4CCCCC4)c3=O)=NN2)c1 (centres undefined)	5.7 µM (active)
N[C@@H](CNC(=O)COc1ccc(Cl)c2ccccc12)C1CC1	24.9 µM (inactive)
CC(C)n1ncnc1NC(=O)c1cccc(C(F)(F)F)c1O	5.6 µM (active)
O=c1[nH]ncc(NCc2ccc(OC[C@H]3CCCO3)cc2)c1Cl	4.2 µM (inactive)
O=C(Nc1cc(Cl)cc2cccnc12)c1ccoc1	0.3 µM (active)
COC1(C(=O)N2CCO[C@H](c3ccccc3C)C2)CS(=O)(=O)C1	8.6 µM (active)
O=S(=O)(c1c[nH]cn1)N1CCNC[C@H]1c1cccc(Cl)c1	50 µM (inactive)
O=C(Nc1nc2ccccc2[nH]1)c1ccc(-n2cccn2)cc1	48.2 µM (inactive)
O=S1(=O)CCCN1c1ccc(CNc2ncnc3ccccc23)cc1F	2.2 µM (active)
Cc1cc(NC(=O)c2cscn2)ccc1NC(=O)c1ccco1	9.1 µM (active)
Cc1cc(SCC#N)n2ncc(-c3ccccc3)c2n1	0.9 µM (active)
COc1cc(OC)c(OC)cc1CNC(=O)c1cccc2cccnc12	12 µM (inactive)
O[C@@H](CNCc1cc2ccccc2nc1N1CCCCC1)CN1CCCC1	9.8 µM (active)
C[C@H](O)CN1CCC(CNCc2ccc(Br)cc2)CC1	5.3 µM (active)

Structure (SMILES)	CC50
CCCCc1cc(NC(=O)[C@H]2CC(=O)N(Cc3ccccc3)C2)[nH]n1	1.8 µM (active)
c1ccc2c(c1)sc1ncnc(NC[C@H]3CN(C4CC4)CCO3)c12	11.8 µM (active)
COc1ccc(C(=O)Nc2ccncc2)cc1S(=O)(=O)N(C)Cc1ccccc1	10.3 µM (active)
CCCCn1nnnc1Cn1ncc(Cl)c(Cl)c1=O	3 µM (active)
COc1ccc(-c2nnc(Cn3ncc(Cl)c(Cl)c3=O)o2)cc1	0.9 µM (active)
COCCN1CCCC(CNC2CCN(c3ccccc3Cl)CC2)C1 (centres undefined)	5.2 µM (active)
O=C(Cc1ccc(-n2cccn2)cc1)Nc1nccs1	0.6 µM (active)
COc1ccccc1OCC(=O)Nc1cccc2ncccc12	9.3 µM (active)
CCc1ccc(-c2cc(C(=O)N3C[C@H]4CC[C@@H]3CN(C)C4)[nH]n2)cc1	13.9 µM (inactive)
COc1cc(F)cc2sc(NC(=O)c3cc(N4CCOCC4)ccn3)nc12	48.8 µM (inactive)
CCN(c1ccc(C(=O)Nc2ccccc2O)cc1)C(C)C	11.9 µM (active)
COc1c(C)ncnc1NCc1cccc(C(F)(F)F)c1	2.9 µM (active)
Cc1ccc(NC(=O)Nc2ccc(Cl)cc2)cc1NS(C)(=O)=O	3.6 µM (active)
Nc1ccnc2ccc(Oc3ccccc3)cc12	11.2 µM (active)
O=C(Nc1nccs1)c1cccc(S(=O)(=O)N2CCN(c3ccc(F)cc3)CC2)c1	3.1 µM (active)
CCCn1c(NC(=O)c2cccc(S(=O)(=O)N3CCN(C(C)=O)CC3)c2)nc2ccccc21	8.3 µM (active)
CCN(c1ccccc1C)S(=O)(=O)c1cn(C)nn1	19.9 µM (inactive)
Fc1ccc2[nH]c(CCNc3ncc(Br)cn3)nc2c1	5.1 µM (active)
O=C1c2ccccc2C(=O)N1Cn1ncc(Cl)c(Cl)c1=O	11.5 µM (active)
CCCCNc1nc(-c2cc(C)ccn2)cs1	6.3 µM (active)
CC(C)Cn1ncc2cc(C(=O)Nc3nc4ccccc4[nH]3)cnc21	15.5 µM (inactive)
CN(C)C1CCN(CCNC(=O)Nc2ccc(C3CC3)c(F)c2)CC1	4.5 µM (active)
CN(C)c1cccc(S(=O)(=O)Nc2ccc3ncccc3c2)c1	3.3 µM (active)
Nc1ccncc1CCC1CCCCC1	10.7 µM (active)
O=S(=O)(c1cccs1)N1CCN(C[C@H](O)COc2cc(Cl)ccc2Cl)CC1	8.9 µM (active)
N#Cc1cnn(C(=O)c2ccc(OCc3ccccc3)cc2)c1N	6.1 µM (inactive)

Structure (SMILES)	CC50
COc1ccc2[nH]c(NC(=O)[C@@H]3CCCC(=O)N3)cc2c1	4.6 µM (active)
Cn1c(=O)c2c(ncn2CCn2ncc(Cl)c(Cl)c2=O)n(C)c1=O	11.7 µM (active)
Cc1nccn1-c1ccc(NC(=O)c2cccc(OC(C)C)n2)cn1	6.5 µM (active)
Cc1csc2nc(CN[C@H](c3ccc(Cl)cc3)C3CC3)cc(=O)n12	2.6 µM (active)
Cc1ccc(NC(=O)Cc2ccc(-n3cccn3)cc2)nc1	0.4 µM (active)
Cc1cc(C)n(C(=O)Cc2cccs2)n1	16 µM (inactive)
Cc1cccn2c(CC(=O)N3CCOc4ccc(Cl)cc4C3)cnc12	4.9 µM (active)
CCn1cc(CC(=O)Nc2ccc(Oc3ccccc3)cn2)cn1	5.3 µM (active)
c1ccc(-n2cnc3c(Nc4cnn(C[C@H]5CCCO5)c4)ncnc32)cc1	5.8 µM (active)
CCOc1cc2ccccc2cc1C(=O)NCc1ccco1	1.7 µM (active)
COc1ccc2cc(C(=O)Nc3ccc4oc(=O)[nH]c4c3)[nH]c2c1	32.5 µM (inactive)
COc1ccc(C(=O)Nc2ccc(OC3CCN(C)CC3)cc2)c(OC)n1	13.4 µM (active)
C[C@@H]1NC(C(=O)Nc2ccnc3ccnn23)=NN(c2ccccc2)C1=O	13.2 µM (active)
CCCN1CCC(NC(=O)c2nn(-c3cccc(Cl)c3)nc2C)CC1	16.3 µM (inactive)
CNC(=O)c1cc(Oc2ccccc2N)ccn1	32.7 µM (inactive)
O=S(=O)(c1ccc(N2CCN(c3ncnc4c3oc3ccccc34)CC2)nc1)N1CCOCC1	3.3 µM (active)
N#Cc1ccc(NC(=O)Cn2c(=O)ccn(Cc3ccccc3)c2=O)cc1	13.9 µM (inactive)
COc1ccc2nc(NC(=O)N(C)Cc3nc(C)cs3)sc2c1	12.7 µM (inactive)
Cc1nn(-c2cccc(Cl)c2)nc1C(=O)N(C)C1CCNCC1	11.4 µM (active)
CCn1nc(C)cc1C(=O)Nc1nc2cc(C#N)ccc2n1CC	4 µM (active)
CC(=O)c1ccc(-c2ccc(C(=O)Nc3ncc(C)o3)o2)cc1	4.2 µM (active)
O=C(Nc1ccnc2ccnn12)c1cc2ccccc2c(=O)[nH]1	0.1 µM (active)
Cc1cccc2nc(C(=O)Nc3cccc4cccnc34)cn12	0.1 µM (active)
CC(C)(C)NS(=O)(=O)c1ccc(C(=O)Nc2ccc(Oc3cccnc3)nc2)o1	11.8 µM (inactive)
Cc1ccc([C@H](C)N(C)C(=O)Nc2cc(C(C)C)n[nH]2)cc1	5 µM (active)
O=S(=O)(Nc1ccc(Cl)c2cccnc12)c1c[nH]c2ncccc12	5.5 µM (inactive)

Structure (SMILES)	CC50
Oc1ccc(CN2CCc3ccccc3C2)cc1	3.4 µM (active)
CC(C)(C)c1nccc(NC(=O)c2ccc(F)c(C#N)c2)n1	1.2 µM (active)
CS(=O)(=O)c1ncc(Cl)c(C(=O)Nc2ccc(Cl)cc2)n1	4.1 µM (active)
Cc1ccc(NC(=O)c2cccc(F)c2Cl)cc1O	0.7 µM (active)
O=C(NCC(F)(F)CO)c1ccc2noc(-c3ccccc3)c2c1	7.2 µM (active)
CC1=NNc2nc3c(c(=O)n(Cc4ccccc4Cl)c(=O)n3C)n2[C@H]1C	21.1 µM (inactive)
N#Cc1ccc(CN2CCN(C(=O)c3ccc(Cn4cccn4)cc3)CC2)cc1	3.9 µM (active)
CCc1nc(C)c([C@H](C)N(C)Cc2cccnc2N)s1	13.8 µM (active)
CC(C)(C)n1ncc(N2CCN(c3ccc(C#N)cc3F)CC2)c(Cl)c1=O	22.7 µM (active)
Clc1ccc(C2=CCNCC2)cc1Cl	10.8 µM (active)
COc1cc(-c2nc(-c3cccs3)no2)cc(OC)c1O	0.4 µM (active)
O=C(Nc1ccnn1-c1ccc(Br)cn1)c1ccccn1	23.7 µM (inactive)
C[C@H]1CN(CC(=O)Nc2nc3ccc(F)cc3s2)CCN1c1nccn2cnnc12	8 µM (active)
Cc1nc(-c2ccccn2)sc1C(=O)Nc1ccccc1O	2.8 µM (active)
Cc1cc(NC(=O)CN2CCCC[C@@H]2C)n(C)n1	50 µM (inactive)
Cc1ccc(NCc2cc(=O)n3c(C)csc3n2)c(F)c1	7.2 µM (active)
CC(C)CN(CCS(=O)(=O)c1ccc(C(C)(C)C)cc1)C1CCN(C)CC1	4.4 µM (active)
NCC[C@H](N)C(=O)N1CCC2(CCC(=O)N(Cc3ccccc3)C2)CC1	11.5 µM (active)
Cc1nonc1Cn1nc(Cl)c(Cl)cc1=O	21.6 µM (inactive)
c1ccc2c(c1)OC[C@H](CNc1ncnc3sccc13)O2	1.8 µM (active)
Cc1c(CNCCCN2CCCCC2CO)oc2ccccc12 (centres undefined)	9.8 µM (active)
CCN(CC)C(=O)CN1CCN(S(=O)(=O)c2ccc3c(c2)CCC3)CC1	50 µM (inactive)
COc1ccsc1C(=O)Nc1ncc(Cl)s1	2.3 µM (active)
O=C(Nc1nccs1)c1cccc(S(=O)(=O)N2CCc3ccccc32)c1	8.3 µM (active)
Cc1ccccc1N1CCN(C(=O)C2CCN(S(=O)(=O)c3ccc4c(c3)OCCCO4)CC2)CC1	1.7 µM (active)
Cc1cc(-c2csc(NC(=O)c3coc(S(=O)(=O)N(C)C)c3)n2)c(C)o1	16.5 µM (inactive)
